Source: US11584744B2 (UNIVERSITY OF WASHINGTON, priority 2017, dated 2023)
≈ marks a conversion by molar mass, not a printed value. Where “and” joins values, the source holds several entries; their conditions need not be identical. Equal values may be shown once. Read-outs that look alike come from different tables or passages of the source.

What was measured:
[1] = target: MetRS (C. parvum) (Cryptosporidium parvum, UniProt Q5CVN0); test: MetRS (C. parvum) enzyme inhibition; format: biochemical; conditions: read-out: (C) MetRS (C. parvum) IC50
MetRS (C. parvum), sequence (Q5CVN0 entry or part of it): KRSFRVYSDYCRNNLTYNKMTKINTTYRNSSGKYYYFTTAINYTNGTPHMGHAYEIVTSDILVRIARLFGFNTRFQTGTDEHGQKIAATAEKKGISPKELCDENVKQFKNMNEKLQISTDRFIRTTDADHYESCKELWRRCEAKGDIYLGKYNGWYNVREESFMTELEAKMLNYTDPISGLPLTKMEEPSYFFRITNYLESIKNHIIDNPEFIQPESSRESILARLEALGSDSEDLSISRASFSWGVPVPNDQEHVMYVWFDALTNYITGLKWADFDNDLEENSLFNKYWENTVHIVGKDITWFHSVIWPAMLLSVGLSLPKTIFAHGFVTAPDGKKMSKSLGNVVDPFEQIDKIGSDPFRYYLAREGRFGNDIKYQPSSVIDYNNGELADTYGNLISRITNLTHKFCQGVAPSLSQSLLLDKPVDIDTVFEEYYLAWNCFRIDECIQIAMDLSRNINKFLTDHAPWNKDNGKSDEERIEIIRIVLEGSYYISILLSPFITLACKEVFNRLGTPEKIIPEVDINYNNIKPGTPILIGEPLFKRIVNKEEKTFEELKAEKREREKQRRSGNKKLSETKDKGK

[2] = test system: T. cruzi; test: T. cruzi growth inhibition; format: cell-based, Trypanosoma cruzi; conditions: read-out: (E) T. cruzi EC50
[3] = test system: S. aureus MSSA (ATCC 29213); test: MIC susceptibility testing; format: cell-based, Staphylococcus aureus; conditions: S. aureus ATCC 29213; for MIC: Staphylococcus aureus, read-out: (F) S. aureus (ATCC 29213) MIC
[4] = test system: S. aureus MRSA (ATCC 33591); test: MIC susceptibility testing; format: cell-based, Staphylococcus aureus; conditions: Staphylococcus aureus, MRSA ATCC33591; read-out: (G) MRSA (ATCC33591) MIC
Summary of the method: (§1)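 CLSI broth microdilution in triplicate, 5×10^5 CFU/mL final, ≤0.5% DMSO; MHB for S. aureus, CA-MHB for E. coli and E. faecium, CA-MHB plus 3% laked horse blood for S. pyogenes (5% CO2).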

[5] = target: T1, MetRS (T. brucei) (Trypanosoma brucei brucei, UniProt Q38C91); test: MetRS (T. brucei) enzyme inhibition; format: biochemical
T1 sequence (Q38C91 1-773): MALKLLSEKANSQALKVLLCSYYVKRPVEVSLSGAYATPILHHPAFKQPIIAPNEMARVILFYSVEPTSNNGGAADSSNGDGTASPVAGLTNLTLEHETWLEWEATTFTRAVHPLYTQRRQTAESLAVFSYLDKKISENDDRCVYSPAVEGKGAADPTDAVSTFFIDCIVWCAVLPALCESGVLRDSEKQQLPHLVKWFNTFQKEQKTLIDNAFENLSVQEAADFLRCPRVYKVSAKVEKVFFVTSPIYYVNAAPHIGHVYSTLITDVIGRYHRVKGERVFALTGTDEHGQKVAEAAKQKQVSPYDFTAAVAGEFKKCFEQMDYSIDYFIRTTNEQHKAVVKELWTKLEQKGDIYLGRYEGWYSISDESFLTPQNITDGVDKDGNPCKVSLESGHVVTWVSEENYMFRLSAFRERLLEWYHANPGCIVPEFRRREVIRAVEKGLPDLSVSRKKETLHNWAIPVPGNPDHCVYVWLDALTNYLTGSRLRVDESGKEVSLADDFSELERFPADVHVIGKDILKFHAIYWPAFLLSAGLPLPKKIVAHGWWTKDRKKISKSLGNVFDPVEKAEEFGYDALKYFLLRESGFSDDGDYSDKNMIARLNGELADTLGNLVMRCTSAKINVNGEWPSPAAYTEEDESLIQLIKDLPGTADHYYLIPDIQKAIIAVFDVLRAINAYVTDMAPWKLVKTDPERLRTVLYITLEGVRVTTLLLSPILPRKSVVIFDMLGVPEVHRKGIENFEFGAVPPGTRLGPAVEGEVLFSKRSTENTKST

[6] = test system: C. parvum; test: C. parvum growth inhibition; format: cell-based, Cryptosporidium parvum; conditions: read-out: (J) C. parvum EC50
[7] = test system: G. lamblia (ATCC GL50803); test: G. lamblia growth inhibition; format: cell-based; conditions: Giardia duodenalis, read-out: (K) G. lamblia (ATCC GL50803) EC50
[8] = test system: S. pyogenes (ATCC 19615); test: MIC susceptibility testing; format: cell-based; conditions: Streptococcus pyogenes, ATCC19615, S. pyogenes ATCC 19615; read-out: (H) S. pyogenes (ATCC 19615) MIC
Text: Media and culture conditions. Mueller Hinton broth (MHB), cation adjusted Mueller Hinton broth (CA-MHB), and Brain Heart Infusion broth (BHI) were purchased from Becton Dickinson (Franklin Lakes, N.J.). Tryptic soy agar (TSA) plates, TSA with 5% sheep blood plates, and CA-MHB with 3% laked horse blood were purchased from Remel (San Diego, Calif.). MHB was used to assay all Staphylococcus aureus strains. CA-MHB was used for Staphylococcus epidermidis, Enterococcus faecalis, Enterococcus faecium, Escherichia coli, and Pseudomonas aeruginosa. CA-MHB supplemented with 3% laked horse blood was used for Streptococcus pneumoniae and Streptococcus pyogenes. Staphylococcus, Enterococcus, Escherichia, and Pseudomonas strains were cultured at 37° C. with ambient air. Streptococcus strains were cultured in 37° C. with 5% CO2. Separate conditions for radiolabeled precursor uptake assays are described below.
Susceptibility testing: Minimum inhibitory concentration (MIC) determinations were performed in triplicate in 96-well round bottom microtiter plates (Corning, Corning N.Y.) as described by the Clinical and Laboratory Standards Institute (CLSI). Serial two-fold dilutions of compounds were added to plates in 50 μL volumes. An additional 50 μL of media containing bacterial cells (1×10^6 CFUs/mL) was then added to each well. Maximum DMSO concentrations were 0.5%. Plates were incubated at 37° C. for at least 18 h before reading the susceptibility result by optical absorbance (OD600) using a BioTek ELx800. The lowest concentration causing ≥90% growth inhibition compared to the untreated control was recorded as the MIC (and also corresponded to the visual MIC). MICs were measured at least twice and the higher value (if different) was recorded herein.

[9] = target: recombinant S. aureus MetRS enzyme (Staphylococcus aureus, UniProt A0A0H2XID2); test: Inhibition of SaMetRS, ATP depletion assay; format: biochemical; conditions: read-out: (B) MetRS (S. aureus) IC50
recombinant S. aureus MetRS enzyme, sequence (A0A0H2XID2 2-657): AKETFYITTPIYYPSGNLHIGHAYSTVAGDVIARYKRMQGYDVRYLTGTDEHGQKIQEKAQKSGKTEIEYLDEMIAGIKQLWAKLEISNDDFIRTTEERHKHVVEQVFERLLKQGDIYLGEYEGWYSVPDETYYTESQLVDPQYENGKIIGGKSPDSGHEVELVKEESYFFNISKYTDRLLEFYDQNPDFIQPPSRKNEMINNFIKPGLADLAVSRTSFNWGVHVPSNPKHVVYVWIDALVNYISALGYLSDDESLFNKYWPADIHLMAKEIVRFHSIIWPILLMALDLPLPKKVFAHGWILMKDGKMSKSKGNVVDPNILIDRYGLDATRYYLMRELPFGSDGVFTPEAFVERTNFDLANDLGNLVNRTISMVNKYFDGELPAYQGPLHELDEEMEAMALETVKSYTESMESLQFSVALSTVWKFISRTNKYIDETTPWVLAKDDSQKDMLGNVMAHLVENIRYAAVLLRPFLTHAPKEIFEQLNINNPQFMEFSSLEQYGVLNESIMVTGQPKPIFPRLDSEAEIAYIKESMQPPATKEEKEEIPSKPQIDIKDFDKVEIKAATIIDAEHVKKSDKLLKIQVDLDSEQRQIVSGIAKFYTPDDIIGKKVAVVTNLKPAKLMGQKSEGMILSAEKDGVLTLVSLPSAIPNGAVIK
Method: Production of recombinant S. aureus MetRSs. The SaMetRS gene (UniProtKB—A0A0H2XID2) was PCR amplified (Sense 5′-[…]-3′ (SEQ ID NO: 1) and Antisense 5′-[…]-3′ (SEQ ID NO:2)) from genomic DNA isolated from S. aureus (ATCC 29213) cultures. The PCR product was then cloned into the AVA0421 plasmid and sequence verified. The expression of recombinant protein was performed as previously described. The N-terminal 6-His fusion proteins were purified by nickel affinity chromatography followed by size exclusion gel chromatography (Superdex 75 26/60; GE Biosciences, Piscataway, N.J.).
Enzyme assays. Inhibition of SaMetRS was measured using the ATP depletion assay as previously described with some modifications. Compounds were pre-incubated for 15 minutes at room temperature in a 96-well plate with 400 μg/mL bulk E. coli tRNA, 25 nM SaMetRS, 0.1 U/mL pyrophosphatase, 0.2 mM spermine, 0.1 mg/mL bovine serum albumin, 2.5 mM dithiothreitol, 25 mM HEPES-KOH pH 7.9, 10 mM MgCl2, 50 mM KCl, and 2% DMSO. Reagents were purchased from Sigma-Aldrich or Roche. The reaction was started with the addition of 150 nM ATP and 20 μM L-methionine and after 120 minute incubation was stopped by the addition of an equal volume (50 μL) of Kinase-Glo® (Promega). Percent inhibition=100×(test compound−AVG low control)/(AVG high control−AVG low control) where the low control is all reagents except the compound and the high control is all reagents except the compounds and L-methionine. IC50 values were calculated by non-linear regression, sigmoidal-dose response, in Prism 3.0.

[10] = test system: T. brucei; test: T. brucei growth inhibition; format: cell-based, Trypanosoma brucei; conditions: read-out: (D) T. brucei EC50
[11] = test system: E. faecium VRE (ATCC 51559); test: MIC susceptibility testing; format: cell-based, Enterococcus faecium; conditions: E. faecium ATCC 51559; for MIC: Enterococcus faecium, read-out: (I) E. faecium (ATCC 51559) MIC
Summary of the method: as §1

CC(C)n1c(Cc2ccc(Cl)cc2Cl)cn(Cc2nc3ccc(F)nc3[nH]2)c1=O [Compound 2080, 4-[(2,4-dichlorophenyl)methyl]-1-({5-fluoro-1H-imidazo[4,5-b]pyridin-2-yl}methyl)-3-(propan-2-yl)-2,3-dihydro-1H-imidazol-2-one]
IC50 [1]: < 0.04 µM | EC50 ([2]; Trypanosoma cruzi): 0.22 µM | MIC [3]: 0.999 mg/L (≈ 2.3 µM) | MIC [4]: 1.4 mg/L (≈ 3.22 µM) | IC50 [5]: < 0.04 µM | EC50 ([6]; Cryptosporidium parvum): 0.61 µM | EC50 [6]: 0.434 µM | EC50 [7]: 3.85 µM

C[S+]([O-])c1nc(Cc2ccc(Cl)cc2Cl)cn1Cc1nc2nc(Cl)ccc2[nH]1 (stereo not drawn) [Compound 2110, 1-({5-chloro-1H-imidazo[4,5-b]pyridin-2-yl}methyl)-4-[(2,4-dichlorophenyl)methyl]-2-methanesulfinyl-1H-imidazole]
IC50 [1]: 0.0986 µM | EC50 ([2]; Trypanosoma cruzi): 0.178 µM | MIC [8]: > 4 mg/L | MIC [3]: 0.795 mg/L (≈ 1.75 µM) | MIC [4]: 2.36 mg/L (≈ 5.19 µM) | IC50 [9]: < 0.025 µM | IC50 [5]: < 0.04 µM | EC50 ([10]; Trypanosoma brucei): 0.0194 µM | EC50 ([6]; Cryptosporidium parvum): 1.27 µM | MIC [11]: 1.99 mg/L (≈ 4.38 µM)

C[S+]([O-])c1nc(Cc2ccc(Cl)cc2Cl)cn1Cc1nc2ccc(F)nc2[nH]1 (stereo not drawn) [Compound 2120, 4-[(2,4-dichlorophenyl)methyl]-1-({5-fluoro-1H-imidazo[4,5-b]pyridin-2-yl}methyl)-2-methanesulfinyl-1H-imidazole]
IC50 [1]: < 0.04 µM | EC50 ([2]; Trypanosoma cruzi): 0.295 µM | MIC [8]: > 4 mg/L | MIC [3]: 1.26 mg/L (≈ 2.87 µM) | IC50 [9]: < 0.025 µM | IC50 [5]: < 0.04 µM | EC50 ([10]; Trypanosoma brucei): 0.0136 µM | EC50 ([6]; Cryptosporidium parvum): 1.23 µM | MIC [11]: 0.336 mg/L (≈ 0.767 µM)

COc1ccc(-c2ccc(NC(C)=O)c3nc(Cc4nc5nc(Cl)ccc5[nH]4)cn23)c(Cl)c1 [Compound 2169, N-[2-({5-chloro-1H-imidazo[4,5-b]pyridin-2-yl}methyl)-5-(2-chloro-4-methoxyphenyl)imidazo[1,2-a]pyridin-8-yl]acetamide]
IC50 [1]: < 0.04 µM | MIC [3]: 0.259 mg/L (≈ 0.538 µM) | IC50 [5]: < 0.04 µM | EC50 ([6]; Cryptosporidium parvum): 0.144 µM | EC50 [6]: 0.195 µM | EC50 [7]: 0.01 µM

COc1ccc(Cc2cn(Cc3nc4nc(Cl)ccc4[nH]3)c(=O)n2CC(C)(C)O)c(Cl)c1 [Compound 2207, 1-({5-chloro-1H-imidazo[4,5-b]pyridin-2-yl}methyl)-4-[(2-chloro-4-methoxyphenyl)methyl]-3-(2-hydroxy-2-methylpropyl)-2,3-dihydro-1H-imidazol-2-one]
IC50 [1]: < 0.04 µM | (F) S. aureus (ATCC 29213) MIC [3]: 0.424 µg/mL | MIC [3]: 0.218 mg/L (≈ 0.458 µM) | MIC [4]: 0.334 mg/L (≈ 0.701 µM) | IC50 [5]: < 0.04 µM | EC50 ([6]; Cryptosporidium parvum): 0.129 µM | EC50 [7]: 0.03 µM

COc1cc(Cl)c(-c2cccc3c2CN(Cc2nc4nc(Cl)ccc4[nH]2)C3=O)cc1OC [Compound 2231, 2-((5-chloro-1H-imidazo[4,5-b]pyridin-2-yl)methyl)-4-(2-chloro-4,5-dimethoxyphenyl)isoindolin-1-one]
IC50 [1]: < 0.04 µM | MIC [4]: < 0.00781 mg/L | EC50 ([10]; Trypanosoma brucei): < 0.00091 µM | EC50 [10]: 0.00066 µM | EC50 [7]: 0.01 µM

COc1ccc(-c2cccc3c2CN(Cc2nc4c(C#N)c(Cl)ccc4[nH]2)C3=O)c(Cl)c1 [Compound 2233, 5-chlor0-2-((4-(2-chloro-4-methoxyphenyl)-1-oxoisoindolin-2-yl)methyl)-1H-benzo[d]imidazole-4-carbonitrile]
IC50 [1]: < 0.04 µM | EC50 ([2]; Trypanosoma cruzi): 0.207 µM | MIC [4]: 0.186 mg/L (≈ 0.401 µM) | EC50 ([10]; Trypanosoma brucei): 0.0233 µM | EC50 [10]: 0.0278 µM | MIC [11]: 0.147 mg/L (≈ 0.317 µM) | EC50 [7]: 0.02 µM

COc1cc(Cl)c(Cc2cn(Cc3nc4nc(Cl)ccc4[nH]3)c(=O)n2CC(C)(C)O)cc1OC [Compound 2240, 1-({5-chloro-1H-imidazo[4,5-b]pyridin-2-yl}methyl)-4-[(2-chloro-4,5-dimethoxyphenyl)methyl]-3-(2-hydroxy-2-methylpropyl)-2,3-dihydro-1H-imidazol-2-one]
IC50 [1]: < 0.04 µM | EC50 ([2]; Trypanosoma cruzi): 0.0057 µM | EC50 [2]: 0.00683 µM | MIC [4]: 0.0578 mg/L (≈ 0.114 µM) | EC50 ([10]; Trypanosoma brucei): < 0.00091 µM | EC50 [10]: 0.00068 µM | (I) E. faecium (ATCC 51559) MIC [11]: 0.0122 mg/L | MIC [11]: 0.0141 mg/L (≈ 0.0278 µM) | EC50 [7]: 0.02 µM

COc1ccc(Cc2cn(Cc3nc4c(Cl)c(Cl)ccc4[nH]3)c(=O)n2CC(C)(C)O)c(Cl)c1 [Compound 2242, 4-[(2-chloro-4-methoxyphenyl)methyl]-1-[(6,7-dichloro-1H-1,3-benzodiazol-2-yl)methyl]-3-(2-hydroxy-2-methylpropyl)-2,3-dihydro-1H-imidazol-2-one]
IC50 [1]: < 0.04 µM | EC50 ([2]; Trypanosoma cruzi): 0.112 µM | MIC [4]: 1.81 mg/L (≈ 3.55 µM) | EC50 ([10]; Trypanosoma brucei): 0.00897 µM | EC50 [10]: 0.0118 µM | EC50 ([6]; Cryptosporidium parvum): 0.531 µM | EC50 [6]: 0.8 µM | (I) E. faecium (ATCC 51559) MIC [11]: 0.847 mg/L | MIC [11]: 0.599 mg/L (≈ 1.17 µM) | EC50 [7]: 0.05 µM

COc1ccc(-c2nccn3c(=O)n(Cc4nc5nc(Cl)ccc5[nH]4)cc23)c(Cl)c1 [Compound 2249, 2-({5-chloro-1H-imidazo[4,5-b]pyridin-2-yl}methyl)-8-(2-chloro-4-methoxyphenyl)-2H,3H-imidazo[1,5-a]pyrazin-3-one]
IC50 [1]: 0.122 µM | EC50 ([2]; Trypanosoma cruzi): 0.0764 µM | EC50 [2]: 0.114 µM | (F) S. aureus (ATCC 29213) MIC [3]: 3.33, μg/ml and 3.16 μg/ml | MIC [3]: > 2 mg/L | EC50 ([10]; Trypanosoma brucei): 0.0309 µM | EC50 [10]: 0.0316 µM | EC50 ([6]; Cryptosporidium parvum): 1.07 µM | EC50 [6]: 1.2 µM and 1.14 µM and > 2 µM | EC50 [7]: 1.2 µM
